Where two headings read alike, the source gives them in different places.
Key:
[1] = human
[2] = human, cited from earlier work
[3] = human, cited from earlier work; for Rb_Human: blood-to-plasma concentration ratio, median if multiple values reported, Reference of Table S1
[4] = cited from earlier work
plasma protein = settings: cited from earlier work; for fp_Human (free fraction in plasma): human
[5] = intravenous, median if multiple values were reported, ref numbers in Table S1
[6] = median if multiple values were reported, ref numbers in Table S1
[7] = human, intravenous, median if multiple values were reported, ref numbers in Table S1
[8] = collected value, median if multiple values were reported, ref: Table S1
[9] = intravenous, median if multiple values reported, Reference of Table S1
[10] = free fraction in human plasma, median if multiple values reported, Reference of Table S1
[11] = human, intravenous, median if multiple values reported, Reference of Table S1

Molecule | in vivo CL_(L/hr/kg)_Human [4, 7] [L/h/kg] | fp_Human (free fraction in plasma) (plasma protein; [8]) | in vivo Vd_(L/kg)_Human [2, 9] [L/kg] | Rb_Human [3] | fp_Human (plasma protein; [10]) | in vivo CL_(L/hr/kg)_Human [4, 11] [L/h/kg] | other results
CC(C)NCC(O)COc1ccc(CCOCC2CC2)cc1 (centres unmarked) [Betaxolol] | 0.204 | 0.495 | – | – | – | – | in vivo MRT_(hr)_Human [1]: 23.529 h; in vivo Vd_(L/kg)_Human [2, 5]: 4.800 L/kg; Rb_Human (blood-to-plasma concentration ratio) [3, 6]: 0.79
CC[C@H](C)C[C@H](C)CCCCCCCCC(=O)N[C@H]1C[C@@H](O)[C@@H](NCCN)NC(=O)[C@@H]2[C@@H](O)CCN2C(=O)[C@H]([C@H](O)CCN)NC(=O)[C@H]([C@H](O)[C@@H](O)c2ccc(O)cc2)NC(=O)[C@@H]2C[C@@H](O)CN2C(=O)[C@H]([C@@H](C)O)NC1=O [Caspofungin] | – | – | – | – | – | – | in vivo MRT_(hr)_Human [1]: 15.476 h; in vivo Vd_(L/kg)_Human ([2]; in vivo, iv): 0.130 L/kg; Rb_Human (blood-to-plasma concentration ratio) ([3]; plasma): 0.74; in vivo CL_(L/hr/kg)_Human ([4]; in vivo, iv): 0.008 L/h/kg; fp_Human (free fraction in plasma) (plasma protein; plasma): 0.035
CO[C@@]1(NC(=O)C2SC(=C(C(N)=O)C(=O)O)S2)C(=O)N2C(C(=O)O)=C(CSc3nnnn3C)CS[C@@H]21 (some centres unmarked) [Cefotetan] | 0.025 | 0.150 | – | – | – | – | in vivo MRT_(hr)_Human [1]: 5.159 h; in vivo Vd_(L/kg)_Human [2, 5]: 0.130 L/kg; Rb_Human (blood-to-plasma concentration ratio) [3, 6]: 0.65
COC(=O)C1=C(C)NC(C)=C(C(=O)OC(C)C)C1c1cccc2nonc12 (centres unmarked) [Isradipine] | 1.560 | 0.040 | – | – | – | – | in vivo Vd_(L/kg)_Human [2, 5]: 1.500 L/kg; Rb_Human (blood-to-plasma concentration ratio) [3, 6]: 0.55
C[C@@H]1CN([C@H]2CC[C@](C#N)(c3ccc(F)cc3)CC2)CC[C@]1(C(=O)O)c1ccccc1 [Levocabastine] | 0.026 | 0.452 | – | – | – | – | in vivo Vd_(L/kg)_Human [2, 5]: 1.170 L/kg; Rb_Human (blood-to-plasma concentration ratio) [3, 6]: 1.20
O=C1Nc2ccc(Cl)cc2C(c2ccccc2Cl)=NC1O (centres unmarked) [Lorazepam] | 0.066 | 0.074 | – | – | – | – | in vivo Vd_(L/kg)_Human [2, 5]: 6.850 L/kg; Rb_Human (blood-to-plasma concentration ratio) [3, 6]: 1.10
COCC(=O)O[C@]1(CCN(C)CCCc2nc3ccccc3[nH]2)CCc2cc(F)ccc2[C@@H]1C(C)C [Mibefradil] | 0.240 | 0.006 | – | – | – | – | in vivo Vd_(L/kg)_Human [2, 5]: 3.100 L/kg; Rb_Human (blood-to-plasma concentration ratio) [3, 6]: 0.64
COc1c(C)c2c(c(O)c1C/C=C(\C)CCC(=O)O)C(=O)OC2 [Mycophenolic acid] | 0.199 | 0.009 | – | – | – | – | in vivo Vd_(L/kg)_Human [2, 5]: 16.600 L/kg; Rb_Human (blood-to-plasma concentration ratio) [3, 6]: 0.69
C=C1CC[C@@]2(O)[C@H]3Cc4ccc(O)c5c4[C@@]2(CCN3CC2CC2)[C@H]1O5 [Nalmefene] | 0.900 | 0.650 | – | – | – | – | in vivo Vd_(L/kg)_Human [2, 5]: 8.200 L/kg; Rb_Human (blood-to-plasma concentration ratio) [3, 6]: 1.11
OC(CNCC(O)C1CCc2cc(F)ccc2O1)C1CCc2cc(F)ccc2O1 (centres unmarked) [Nebivolol] | 0.840 | 0.020 | – | – | – | – | in vivo Vd_(L/kg)_Human [2, 5]: 11.000 L/kg; Rb_Human (blood-to-plasma concentration ratio) [3, 6]: 1.20
O=C1c2cccc3c2[C@H](CCC3)CN1[C@@H]1CN2CCC1CC2 [Palonosetron] | 0.156 | 0.380 | – | – | – | – | in vivo Vd_(L/kg)_Human [2, 5]: 6.300 L/kg; Rb_Human (blood-to-plasma concentration ratio) [3, 6]: 1.20
CCOc1ccc(NC(C)=O)cc1 [Phenacetin] | – | – | 1.400 | 1.01 | 0.470 | – | in vivo MRT_(hr)_Human [1]: 1.111 h
c1ccc(C2(N3CCCCC3)CCCCC2)cc1 [Phencyclidine] | – | – | 6.550 | 0.94 | 0.350 | 0.306 | –
CC(C)NCC(O)COc1cccc2[nH]ccc12 (centres unmarked) [Pindolol] | – | – | 1.200 | 0.69 | 0.580 | – | in vivo MRT_(hr)_Human [1]: 2.597 h
CC[C@H](C)C(=O)O[C@H]1C[C@H](O)C=C2C=C[C@H](C)[C@H](CC[C@@H](O)C[C@@H](O)CC(=O)O)[C@H]21 [Pravastatin] | – | – | 0.460 | 0.59 | 0.500 | 0.840 | –
CCc1nc(N)nc(N)c1-c1ccc(Cl)cc1 [Pyrimethamine] | – | – | 0.430 | 0.98 | 0.095 | 0.003 | –
CNC(=C[N+](=O)[O-])NCCSCc1ccc(CN(C)C)o1 [Ranitidine] | – | – | 1.200 | 1.00 | 0.900 | – | in vivo MRT_(hr)_Human [1]: 2.083 h
CCOc1cc(CC(=O)N[C@@H](CC(C)C)c2ccccc2N2CCCCC2)ccc1C(=O)O [Repaglinide] | – | – | 0.350 | 0.55 | 0.015 | 0.513 | –
Cc1nc2sccn2c(=O)c1CCN1CCC(=C(c2ccc(F)cc2)c2ccc(F)cc2)CC1 [Ritanserin] | – | – | 1.410 | 0.65 | 0.009 | 0.031 | –

Molecule | in vivo CL_(L/hr/kg)_Human [4, 7] [L/h/kg] | fp_Human (free fraction in plasma) (plasma protein; [8]) | in vivo Vd_(L/kg)_Human [2, 9] [L/kg] | Rb_Human [3] | fp_Human (plasma protein; [10]) | in vivo CL_(L/hr/kg)_Human [4, 11] [L/h/kg] | other results
CCCN1CCCC[C@H]1C(=O)Nc1c(C)cccc1C [Ropivacaine] | – | – | 0.750 | 0.81 | 0.065 | 0.330 | –
C#CCN(C)[C@H](C)Cc1ccccc1 [Selegiline] | – | – | – | 1.73 | – | 1.200 | in vivo Vd_(L/kg)_Human ([2]; in vivo, iv): 1.900 L/kg; fp_Human (plasma protein): 0.095
CC(C)NCC(O)c1ccc(NS(C)(=O)=O)cc1 (centres unmarked) [Sotalol] | – | – | 1.300 | 1.07 | 0.810 | – | in vivo MRT_(hr)_Human [1]: 10.833 h
Cc1cn([C@H]2C=C[C@@H](CO)O2)c(=O)[nH]c1=O [Stavudine] | – | – | 0.670 | 1.30 | 1.000 | 0.492 | –
CCOc1ccccc1OCCN[C@H](C)Cc1ccc(OC)c(S(N)(=O)=O)c1 [Tamsulosin] | – | – | 0.210 | 0.55 | 0.010 | 0.037 | –
CCCCCNC(=N)N/N=C/c1c[nH]c2ccc(OC)cc12 [Tegaserod] | – | – | 5.300 | 0.72 | 0.020 | 1.080 | –
CCCc1nc2c(C)cc(-c3nc4ccccc4n3C)cc2n1Cc1ccc(-c2ccccc2C(=O)O)cc1 [Telmisartan] | – | – | 6.295 | 1.22 | 0.004 | 0.504 | –
C[C@H](Cn1cnc2c(N)ncnc21)OCP(=O)(O)O [Tenofovir] | – | – | 0.830 | 1.05 | 0.930 | 0.186 | –
COc1ccccc1Oc1c(NS(=O)(=O)c2ccc(C(C)C)cn2)nc(-c2ccnc(-c3nnn[nH]3)c2)nc1OCCO [Tezosentan] | – | – | 0.280 | 0.60 | 0.0085 | 0.486 | –
CC(C)(C)NC[C@H](O)COc1nsnc1N1CCOCC1 [Timolol] | – | – | 1.500 | 0.84 | 0.491 | 0.462 | –
Nc1nc(N)c2nc(-c3ccccc3)c(N)nc2n1 [Triamterene] | – | – | 13.000 | 1.03 | 0.420 | 3.780 | –
COc1cc(Cc2cnc(N)nc2N)cc(OC)c1OC [Trimethoprim] | – | – | 1.500 | 1.03 | 0.500 | – | in vivo MRT_(hr)_Human [1]: 11.905 h
Cc1c(C)c2c(c(C)c1O)CCC(C)(COc1ccc(CC3SC(=O)NC3=O)cc1)O2 (centres unmarked) [Troglitazone] | – | – | 0.710 | 0.55 | 0.00347 | 0.210 | –
CCCC(CCC)C(=O)O [Valproic Acid] | – | – | 0.145 | 0.64 | 0.091 | 0.008 | –
O=C1Cc2cc(CCN3CCN(c4nsc5ccccc45)CC3)c(Cl)cc2N1 [Ziprasidone] | – | – | 1.000 | 0.81 | 0.0012 | 0.504 | –
O=P(O)(O)C(O)(Cn1ccnc1)P(=O)(O)O [Zoledronic Acid] | – | – | 0.600 | 0.59 | 0.780 | 0.132 | –
Oc1ccc2c(c1)[C@@]13CCCC[C@@]1(O)[C@@H](C2)N(CC1CCC1)CC3 [butorphanol, reference compound] | 2.460 | 0.170 | – | – | – | – | in vivo Vd_(L/kg)_Human ([2]; in vivo, iv): 12.000 L/kg; Rb_Human (blood-to-plasma concentration ratio) ([3]; plasma): 1.90
Isosorbide mononitrate | 0.102 | 0.850 | – | – | – | – | in vivo Vd_(L/kg)_Human ([2]; in vivo, iv): 0.600 L/kg; Rb_Human (blood-to-plasma concentration ratio) ([3]; plasma): 1.00; fp_Human (plasma protein; human plasma free fraction, median if multiple values were reported, ref numbers in Table S1): 0.850

From PMC8342319, “Predicting blood-to-plasma concentration ratios of drugs from chemical structures and volumes of distribution in humans” (Molecular Diversity, 2021)
